These results are taken from US9615577B2, “Herbicidally active cyclic dione compounds, or derivatives therefor, substituted by a phenyl which has an alkynyl-containing substituent” (Syngenta Limited, priority 2012, dated 2017).

Molecules are shown by their SMILES.

Holding throughout (format): in vivo
Assay [1] concerns Setaria faberi (SETFA). Kind of assay: Test 1A glasshouse assay for herbicidal activity, pre-emergence. The conditions noted are these: 312 h, 250 g/ha, evaluated after 13 days, read-out: percentage phytotoxicity SETFA. The procedure, abridged: (§1)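 Test plants grew from seed in standard soil under controlled glasshouse conditions (24/16 °C, 14 h light, 65% humidity) and received an aqueous acetone (50:50) spray with 0.5% Tween 20, either one day after sowing or after eight days. Damage was rated visually as percent phytotoxicity 13 days later.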

Assay [2] has as its system Alopecurus myosuroides (ALOMY). Described as above. The conditions noted are these: 312 h, 250 g/ha, evaluated after 13 days, read-out: percentage phytotoxicity ALOMY. The gist of the method: as §1
Assay [3] relates to Ipomoea hederacea (IPOHE). The description is as above. To be noted: 312 h, evaluated after 13 days, read-out: percentage phytotoxicity IPOHE. The gist of the method: as §1
For assay [4], the system named is Solanum nigrum (SOLNI). Described as above. To be noted: 312 h, evaluated after 13 days, read-out: percentage phytotoxicity SOLNI. The gist of the method:
as §1

In assay [5] the test system is Echinochloa crus-galli (ECHCG). The assay is described as above. To be noted: 312 h, 250 g/ha, evaluated after 13 days, read-out: percentage phytotoxicity ECHCG. The procedure, abridged: as §1
The subject of assay [6] is Amaranthus retroflexus (AMARE). Described as above. The conditions noted are these: 312 h, 250 g/ha, evaluated after 13 days, read-out: percentage phytotoxicity AMARE. The procedure, abridged:
as §1

In assay [7] the test system is Setaria faberi (SETFA). The assay can be described thus: Test 1A glasshouse assay for herbicidal activity, post-emergence. To be noted: 312 h, 250 g/ha, evaluated after 13 days, read-out: percentage phytotoxicity SETFA. The procedure, abridged: as §1
For assay [8], the system named is Alopecurus myosuroides (ALOMY). Described as above. The conditions noted are these: 312 h, 250 g/ha, evaluated after 13 days, read-out: percentage phytotoxicity ALOMY. The procedure, abridged:
as §1

For assay [9], the system named is Ipomoea hederacea (IPOHE). Described as above. To be noted: 312 h, 250 g/ha, evaluated after 13 days, read-out: percentage phytotoxicity IPOHE. The gist of the method:
as §1

The test system of assay [10] is Solanum nigrum (SOLNI). The assay is described as above. To be noted: 312 h, 250 g/ha, evaluated after 13 days, read-out: percentage phytotoxicity SOLNI. The gist of the method:
as §1

The test system of assay [11] is Echinochloa crus-galli (ECHCG). The assay is described as above. The conditions noted are these: 312 h, 250 g/ha, evaluated after 13 days, read-out: percentage phytotoxicity ECHCG. The gist of the method:
as §1

The test system of assay [12] is Amaranthus retroflexus (AMARE). The assay is described as above. The conditions noted are these: 312 h, 250 g/ha, evaluated after 13 days, read-out: percentage phytotoxicity AMARE. The procedure, abridged: as §1
Assay [13] concerns Setaria faberi (SETFA). Kind of assay: Biological Example 2 comparative herbicidal data, post-emergence glasshouse screen. To be noted: 312 h, read-out: Post-emergence herbicidal activities (percentage phytotoxicity) SETFA. The gist of the method:
(§2)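 Plants grown 8 days in a glasshouse (24/16°C day/night, 14 h light, 65% humidity) were sprayed with compound in acetone/water (50:50) containing 0.5% Tween 20. They were kept under the same conditions and watered twice daily. Phytotoxicity was scored visually after 13 days (0 = no damage, 100 = total damage).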

The subject of assay [14] is Alopecurus myosuroides (ALOMY). The assay is described as above. To be noted: 312 h, read-out: Post-emergence herbicidal activities (percentage phytotoxicity) ALOMY. The gist of the method:
as §2

The subject of assay [15] is Echinochloa crus-galli (ECHCG). The assay is described as above. The conditions noted are these: 312 h, read-out: Post-emergence herbicidal activities (percentage phytotoxicity) ECHCG. The gist of the method:
as §2

The test system of assay [16] is Brachiaria decumbens (BRADC). Kind of assay: Biological Example 3 glasshouse assay for herbicidal activity, using various adjuvant systems, post-emergence. To be noted: 8 g/ha, 14 DAA, adjuvant system per compound. How it is done:
(§3) Post-emergence foliar spray application, 200 L/ha, usually one or two replicates for the weeds (depending on application rate), and two replicates for soybean.
(§4) Standard warm conditions (tropical), in glasshouse. Specifically, the glasshouse bay conditions are 24° C./18° C. day/night; 16/8 hours light/dark; 65% humidity.
(§5) The herbicidal application takes place at the following growth stages for plants which include inter alia one or more of the following plants (usually the herbicidal application takes place on at least the following six plants: DIGSA, ELEIN, SETFA, GLXMA Nikko, and GLXMA TMG133, and either BRADC or BRAPP):
Brachiaria decumbens (BRADC)— growth stage (GS) 12 or 13 (or GS 12)—or, if BRADC is not used, then Brachiaria platyphylla (BRAPP)—growth stage 12 or 13
(§6) Each test Compound is applied with one of the following adjuvant systems (all percentages are final concentrations in the aqueous spray mixture):
(§7) Adjuvant system 1: 0.5% v/v Adigor™ *, 1.0% v/v AMS (ammonium sulphate) and 12.5% v/v IPA (isopropyl alcohol).
Adjuvant system 2: 0.5% v/v Adigor™ * and 12.5% v/v IPA (isopropyl alcohol). […]
(§8) A visual assessment of the % herbicidal damage is made 7 and 14 Days After herbicide Application (DAA) (or, in a minority of cases, 7 and 15 DAA), and the results are recorded as % visual herbicidal damage where 0%=no damage to plants and 100%=plant totally killed. […]

For assay [17], the system named is Echinochloa crus-galli (ECHCG). The assay is described as above. To be noted: 8 g/ha, 14 DAA, adjuvant system per compound. The method, then: as §3, §4, §5
Echinochloa crus-galli (ECHCG)—growth stage 12 or 13
as §6, §7
(§9) Adjuvant system 2: 0.5% v/v Adigor™ * and 12.5% v/v IPA (isopropyl alcohol).
Adjuvant system 3: 0.5% v/v Hexamoll™ DINCH **, 1.0% v/v AMS (ammonium sulphate) and 12.5% v/v IPA (isopropyl alcohol). […]
as §8

The subject of assay [18] is Digitaria sanguinalis (DIGSA). Described as above. The conditions noted are these: 8 g/ha, 0.5% v/v Adigor + 1.0% v/v AMS + 12.5% v/v IPA. The method, then: as §3, §4, §5
Digitaria sanguinalis (DIGSA)—growth stage 12 or 13
as §6, §7, §9
(§10) Adjuvant system 3: 0.5% v/v Hexamoll™ DINCH **, 1.0% v/v AMS (ammonium sulphate) and 12.5% v/v IPA (isopropyl alcohol).
Seeds of the weed plants, typically including inter alia [either Brachiaria decumbens (BRADC) or Brachiaria platyphylla (BRAPP)], Digitaria sanguinalis (DIGSA), Eleusine indica (ELEIN), Setaria faberi (SETFA) are sown in seed trays (troughs) containing clay loam soil (pH 7.0, 2.2% organic matter, “Trough Mix A”); and soybean seed is sown in pots containing the same soil with 3 soybean seedlings per pot. The plants are sprayed with the test herbicide when they reach the growth stages mentioned above. […]
as §8

The subject of assay [19] is Setaria faberi (SETFA). The assay is described as above. To be noted: 8 g/ha, 0.5% v/v Adigor + 1.0% v/v AMS + 12.5% v/v IPA. How it is done:
as §3, §4, §5
Setaria faberi (SETFA)—growth stage 12 or 13
as §6, §7, §9, §10
(§11) Seeds of the weed plants, typically including inter alia [either Brachiaria decumbens (BRADC) or Brachiaria platyphylla (BRAPP)], Digitaria sanguinalis (DIGSA), Eleusine indica (ELEIN), Setaria faberi (SETFA) are sown in seed trays (troughs) containing clay loam soil (pH 7.0, 2.2% organic matter, “Trough Mix A”); and soybean seed is sown in pots containing the same soil with 3 soybean seedlings per pot. The plants are sprayed with the test herbicide when they reach the growth stages mentioned above.
(§12) The test herbicidal solutions are prepared by mixing the appropriate aliquots of the test substance(s) and the adjuvant system indicated above *** in deionised water to give the desired treatment concentration. […]
as §8

For assay [20], the system named is Eleusine indica (ELEIN). The description is as above. The conditions noted are these: 8 g/ha, 15 DAA, 0.5% v/v Adigor + 1.0% v/v AMS + 12.5% v/v IPA. The method, then:
as §3, §4, §5
Eleusine indica (ELEIN)—growth stage 12 or 13
as §6, §7, §9, §10, §11, §12, §8

Assay [21] deals with Abutilon theophasti Medik. (ABUTH). The assay can be described thus: Test 1A glasshouse assay for herbicidal activity, pre-emergence. To be noted: 312 h, 250 g/ha, evaluated after 13 days, read-out: percentage phytotoxicity ABUTH. The procedure, abridged: as §1
The test system is the same in assay [22]. The assay can be described thus: Biological Example 2 comparative herbicidal data, post-emergence glasshouse screen. The conditions noted are these: read-out: Post-emergence herbicidal activities (percentage phytotoxicity) ABUTH.
The subject of assay [23] is Amarantus retroflexus (AMARE). The assay is described as above. The conditions noted are these: Amaranthus retroflexus, read-out: Post-emergence herbicidal activities (percentage phytotoxicity) AMARE.
Assay [24] relates to Abutilon theophasti Medik. (ABUTH). The assay can be described thus: Test 1A glasshouse assay for herbicidal activity, post-emergence. The conditions noted are these: 312 h, 250 g/ha, evaluated after 13 days, read-out: percentage phytotoxicity ABUTH. The procedure, abridged: as §1

Regarding `CC#Cc1cc(C)c(C2C(=O)C3CCC(C3)C2=O)c(CCC)c1` (stereo not drawn) [Compound A-3], the pest or weed control at 250 g/ha in [1] is 100%; in assay [2], 100%; in [3], 40%; in assay [4], 0%; in assay [5], 100%; in [6], 0%. The pest or weed control at 250 g/ha in assay [7] turned out to be 90%; in assay [8], 90%; in [9], 0%; in assay [10], 20%; in assay [11], 100%; in [12] it was 10%.

`CC#Cc1cc(Cl)c(C2C(=O)C3CCC(C3)C2=O)c(CC)c1` (stereo not drawn) [Compound A-4]: the pest or weed control at 250 g/ha in assay [1] was found to be 70%; in assay [2], 100%; in assay [3], 0%; in assay [4], 0%; in assay [5], 100%; in assay [6], 0%. The pest or weed control at 250 g/ha in [7] turned out to be 80%; in assay [8], 90%; in assay [9] it was 0%; in [10], 0%; in assay [11], 100%; in assay [12], 0%.

For the molecule `Cc1cc(C#CCl)ccc1C1C(=O)C(C)(C)OC(C)(C)C1=O` [Compound A-7], the pest or weed control at 250 g/ha in assay [1] was 30%; in assay [2], 80%; in assay [3] it was 20%; in [4] it was 40%; in assay [5], 80%; in assay [6], 60%. Moreover, the pest or weed control at 250 g/ha in assay [7] was found to be 80%; in [8], 80%; in [9], 20%; in [10] it was 50%; in assay [11], 80%; in assay [12], 0%. The pest or weed control at 15.625 g/ha was found to be 40% in assay [13] (15.625 g/ha application rate), 30% in [14] (15.625 g/ha application rate) and 0% in assay [15] (15.625 g/ha application rate). For the same molecule, the pest or weed control at 62.5 g/ha in [13] (62.5 g/ha application rate) was found to be 60%; in [14] (62.5 g/ha application rate), 50%; in assay [15] (62.5 g/ha application rate) it was 60%.

Consider `COc1cc(C#CCl)cc(Cl)c1C1C(=O)C2CCC(C2)C1=O` (stereo not drawn) [Compound A-25, 3-[2-Chloro-4-(2-chloroethynyl)-6-methoxy-phenyl]bicyclo[3.2.1]octane-2,4-dione], for which the “percentage control of Brachiaria decumbens (BRADC)” value in assay [16] came to 15%. Besides, the “percentage control of Echinochloa crus-galli (ECHCG)” value in [17] was determined as 45%. For the same molecule, the “percentage control of Digitaria sanguinalis (DIGSA)” value in assay [18] (14 DAA) came out at 60%. Further, the “percentage control of Setaria faberi (SETFA)” value in [19] (14 DAA) is reported as 40%.

Regarding `C#Cc1cc(Cl)c(C2C(=O)CC3(CCOCC3)CC2=O)c(OC)c1` [Compound B-1, 9-(2-Chloro-4-ethynyl-6-methoxy-phenyl)-3-oxaspiro[5.5]undecane-8,10-dione], the “percentage control of Eleusine indica (ELEIN)” value in assay [20] came to 20%. Further, the pest or weed control at 250 g/ha came out at 80% in assay [1]; 90% in [2]; 0% in assay [21]; 100% in [5]; 20% in assay [6]; 100% in assay [7]. Further, the pest or weed control at 250 g/ha stood at 100% in [8], 60% in [24], 100% in [11] and 0% in [12]. Besides, the pest or weed control at 8 g/ha worked out at 30% in [13] (8 g/ha application rate); 10% in assay [14] (8 g/ha application rate); 20% in [15] (8 g/ha application rate); 0% in assay [22] (8 g/ha application rate); 0% in assay [23] (8 g/ha application rate). Also, the pest or weed control at 30 g/ha is 70% in assay [13] (30 g/ha application rate); 70% in [14] (30 g/ha application rate); 80% in assay [15] (30 g/ha application rate); 10% in assay [22] (30 g/ha application rate); 0% in [23] (30 g/ha application rate). Moreover, in assay [18] (15 DAA), the “percentage control of Digitaria sanguinalis (DIGSA)” value was 85%. In addition, the “percentage control of Setaria faberi (SETFA)” value in [19] (15 DAA) stood at 50%.
